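Briefly, cells in 96-well plates were exposed to five compound concentrations for 48 h, and endpoints were estimated by linear interpolation. The concentration for 50% growth inhibition is given as GI50. TGI marks complete inhibition of growth.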
Tests used:
Test in all cases: NCI-60 cell line screen, 48 h
[1] = test system: HS 578T breast
[2] = test system: A498 renal
[3] = test system: LOX IMVI melanoma
[4] = test system: A549 NSCLC
[5] = test system: UACC-257 melanoma
[6] = test system: CAKI-1 renal
[7] = test system: IGROV1 ovarian
[8] = test system: SF-295 CNS
[9] = test system: SNB-75 CNS
[10] = test system: SK-MEL-2 melanoma
[11] = test system: HCT-15 colon
[12] = test system: SNB-19 CNS
[13] = test system: BT-549 breast
[14] = test system: MOLT-4 leukemia
[15] = test system: MDA-MB-231 breast
[16] = test system: SR leukemia
[17] = test system: SK-MEL-5 melanoma
[18] = test system: MCF7 breast
[19] = test system: SN12C renal
[20] = test system: UACC-62 melanoma
[21] = test system: KM12 colon
[22] = test system: SW-620 colon
[23] = test system: OVCAR-5 ovarian
[24] = test system: HOP-62 NSCLC
[25] = test system: DU-145 prostate
[26] = test system: K-562 leukemia
[27] = test system: U251 CNS
[28] = test system: ACHN renal
[29] = test system: RXF 393 renal
[30] = test system: OVCAR-3 ovarian
[31] = test system: HT29 colon
[32] = test system: OVCAR-8 ovarian
[33] = test system: HCT-116 colon
[34] = test system: EKVX NSCLC
[35] = test system: OVCAR-4 ovarian
[36] = test system: NCI/ADR-RES ovarian
[37] = test system: HOP-92 NSCLC
[38] = test system: SF-539 CNS
[39] = test system: CCRF-CEM leukemia
[40] = test system: RPMI-8226 leukemia
[41] = test system: SK-OV-3 ovarian
[42] = test system: SF-268 CNS
[43] = test system: TK-10 renal
[44] = test system: HCC-2998 colon
[45] = test system: NCI-H522 lung
[46] = test system: 786-0 renal
[47] = test system: M14 melanoma
[48] = test system: NCI-H23 lung
[49] = test system: PC-3 prostate
[50] = test system: HL-60(TB) leukemia
[51] = test system: COLO 205 colon
[52] = test system: SK-MEL-28 melanoma
[53] = test system: NCI-H226 lung
[54] = test system: T-47D breast
[55] = test system: MALME-3M melanoma
[56] = test system: MDA-MB-435
[57] = test system: NCI-H460 lung
[58] = test system: UO-31 renal

COc1ncc(-c2ccc3nc(N)n(-c4ccccc4C(F)(F)F)c(=O)c3c2)cc1S(=O)(=O)Nc1ccc(F)cc1F gave a GI50 [1] of 1.3 µM, a TGI [1] of 84.4 µM and a GI50 [2] of 0.329 µM. For the same molecule, the TGI [2] was 1.96 µM, the GI50 [3] was 0.224 µM and the TGI [3] was 0.761 µM. The GI50 [4] was 0.653 µM, the TGI [4] was > 100 µM and the GI50 [5] was 7.81 µM. For the same molecule, the TGI [5] was 24.5 µM, the GI50 [6] was 0.122 µM and the TGI [6] was > 100 µM. The GI50 [7] was 1.15 µM, the TGI [7] was > 100 µM and the GI50 [8] was 1.41 µM. The TGI [8] was 17.5 µM, the GI50 [9] was 0.866 µM and the TGI [9] was > 100 µM. The GI50 [10] was 2.28 µM, the TGI [10] was 11.9 µM and the GI50 [11] was 0.758 µM. The TGI [11] was 6.96 µM, the GI50 [12] was 7.87 µM and the TGI [12] was 45.8 µM. The GI50 [13] was 1.57 µM, the TGI [13] was 6.7 µM and the GI50 [14] was 3.85 µM. For the same molecule, the TGI [14] was 56.1 µM, the GI50 [15] was 0.217 µM and the TGI [15] was 0.755 µM. For the same molecule, the GI50 [16] was 1.35 µM, the TGI [16] was 17.3 µM and the GI50 [17] was 0.273 µM. It also gave a TGI [17] of 0.944 µM, a GI50 [18] of 2.05 µM and a TGI [18] of 29.4 µM. For the same molecule, the GI50 [19] was 4.52 µM, the TGI [19] was > 100 µM and the GI50 [20] was 3.06 µM. It also gave a TGI [20] of 9.59 µM, a GI50 [21] of 1.06 µM and a TGI [21] of 12.2 µM. It also gave a GI50 [22] of 1.84 µM, a TGI [22] of 20 µM and a GI50 [23] of 1.03 µM. The TGI [23] was 9.81 µM, the GI50 [24] was 0.526 µM and the TGI [24] was > 100 µM. For the same molecule, the GI50 [25] was 0.897 µM, the TGI [25] was > 100 µM and the GI50 [26] was 5.73 µM. The TGI [26] was > 100 µM, the GI50 [27] was 0.953 µM and the TGI [27] was 15.3 µM. The GI50 [28] was 5.77 µM, the TGI [28] was > 100 µM and the GI50 [29] was 0.099 µM. It also gave a TGI [29] of 4.46 µM, a GI50 [30] of 0.369 µM and a TGI [30] of 3.75 µM. For the same molecule, the GI50 [31] was 0.635 µM, the TGI [31] was 4.53 µM and the GI50 [32] was 3.55 µM. The TGI [32] was > 100 µM, the GI50 [33] was 1.7 µM and the TGI [33] was 15.9 µM. For the same molecule, the GI50 [34] was 0.86 µM, the TGI [34] was > 100 µM and the GI50 [35] was 3.64 µM. For the same molecule, the TGI [35] was > 100 µM, the GI50 [36] was 1.94 µM and the TGI [36] was 13.8 µM. For the same molecule, the GI50 [37] was 0.432 µM, the TGI [37] was 94.5 µM and the GI50 [38] was 1.22 µM. It also gave a TGI [38] of 20.4 µM, a GI50 [39] of 1.28 µM and a TGI [39] of 32.2 µM. It also gave a GI50 [40] of 0.3 µM, a TGI [40] of 2.54 µM and a GI50 [41] of 4.85 µM. For the same molecule, the TGI [41] was > 100 µM, the GI50 [42] was 2.43 µM and the TGI [42] was > 100 µM. For the same molecule, the GI50 [43] was 6.73 µM, the TGI [43] was > 100 µM and the GI50 [44] was 1.74 µM. The TGI [44] was 13.7 µM, the GI50 [45] was 3.04 µM and the TGI [45] was 24.5 µM. It also gave a GI50 [46] of 3.16 µM, a TGI [46] of 83.7 µM and a GI50 [47] of 1.23 µM. For the same molecule, the TGI [47] was 14.8 µM, the GI50 [48] was 0.693 µM and the TGI [48] was 38.1 µM. It also gave a GI50 [49] of 1.71 µM, a TGI [49] of 73.7 µM and a GI50 [50] of 1.42 µM. It also gave a TGI [50] of 5.24 µM, a GI50 [51] of 0.511 µM and a TGI [51] of 1.82 µM. For the same molecule, the GI50 [52] was 3.63 µM, the TGI [52] was 14.1 µM and the GI50 [53] was 8.68 µM. The TGI [53] was > 100 µM, the GI50 [54] was 0.425 µM and the TGI [54] was > 100 µM. For the same molecule, the GI50 [55] was 6.53 µM, the TGI [55] was 34.4 µM and the GI50 [56] was 1.11 µM. For the same molecule, the TGI [56] was 4.28 µM, the GI50 [57] was 5.03 µM and the TGI [57] was 36.6 µM.

Molecule Cc1n[nH]c(C)c1-c1c(C)n[nH]c1C has a GI50 [1] of 2.26 µM, a TGI [1] of 16.9 µM and a GI50 [2] of 1.82 µM. For the same molecule, the TGI [2] was 4.12 µM, the GI50 [3] was 1.57 µM and the TGI [3] was 3.06 µM. It also gave a GI50 [4] of 1.68 µM, a TGI [4] of 4.35 µM and a GI50 [5] of 2.18 µM. It also gave a TGI [5] of 5.68 µM, a GI50 [6] of 1.54 µM and a TGI [6] of 3.13 µM. The GI50 [7] was 1.8 µM, the TGI [7] was 4.3 µM and the GI50 [8] was 1.81 µM. The TGI [8] was 3.63 µM, the GI50 [9] was 1.7 µM and the TGI [9] was 4.43 µM. For the same molecule, the GI50 [10] was 2.32 µM, the TGI [10] was 5.51 µM and the GI50 [11] was 1.83 µM. The TGI [11] was 4.53 µM, the GI50 [12] was 2.06 µM and the TGI [12] was 5.13 µM. The GI50 [13] was 1.97 µM, the TGI [13] was 4.26 µM and the GI50 [14] was 2.24 µM. The TGI [14] was > 27.3 µM, the GI50 [15] was 1.83 µM and the TGI [15] was 4.53 µM. For the same molecule, the GI50 [16] was 1.21 µM, the TGI [16] was > 100 µM and the GI50 [17] was 1.74 µM. It also gave a TGI [17] of 3.18 µM, a GI50 [18] of 1.66 µM and a TGI [18] of 3.79 µM. For the same molecule, the GI50 [19] was 2.21 µM, the TGI [19] was 5.82 µM and the GI50 [58] was 1.31 µM. The TGI [58] was 2.7 µM, the GI50 [20] was 1.56 µM and the TGI [20] was 3.42 µM. The GI50 [21] was 1.8 µM, the TGI [21] was 3.97 µM and the GI50 [22] was 1.87 µM. For the same molecule, the TGI [22] was 4.38 µM, the GI50 [23] was 2.13 µM and the TGI [23] was 4.85 µM. It also gave a GI50 [24] of 2.4 µM, a TGI [24] of 9.11 µM and a GI50 [25] of 1.99 µM. The TGI [25] was 4.13 µM, the GI50 [26] was 1.94 µM and the TGI [26] was > 35.6 µM. The GI50 [27] was 1.64 µM, the TGI [27] was 3.76 µM and the GI50 [28] was 1.52 µM. The TGI [28] was 2.88 µM, the GI50 [29] was 1.52 µM and the TGI [29] was 3.07 µM. The GI50 [30] was 1.6 µM, the TGI [30] was 3.05 µM and the GI50 [31] was 2.01 µM. For the same molecule, the TGI [31] was 4.81 µM, the GI50 [32] was 2.09 µM and the TGI [32] was 9.79 µM. It also gave a GI50 [33] of 1.48 µM, a TGI [33] of 3.01 µM and a GI50 [34] of 1.93 µM. It also gave a TGI [34] of 4.96 µM, a GI50 [35] of 2.28 µM and a TGI [35] of 6.38 µM. The GI50 [36] was 2.19 µM, the TGI [36] was 6.16 µM and the GI50 [37] was 1.17 µM. It also gave a TGI [37] of 2.99 µM, a GI50 [38] of 1.73 µM and a TGI [38] of 3.35 µM. The GI50 [39] was 1.45 µM, the TGI [39] was > 100 µM and the GI50 [40] was 1.87 µM. The TGI [40] was 7.01 µM, the GI50 [42] was 2.28 µM and the TGI [42] was 6.91 µM. The GI50 [43] was 2.89 µM, the TGI [43] was 7.2 µM and the GI50 [44] was 1.96 µM. The TGI [44] was 3.82 µM, the GI50 [45] was 1.66 µM and the TGI [45] was 3.63 µM. It also gave a GI50 [46] of 2.37 µM, a TGI [46] of 6.42 µM and a GI50 [47] of 2.01 µM. For the same molecule, the TGI [47] was 5.12 µM, the GI50 [48] was 1.74 µM and the TGI [48] was 3.47 µM. The GI50 [49] was 1.51 µM, the TGI [49] was 4.01 µM and the GI50 [50] was 2.26 µM. For the same molecule, the TGI [50] was 6.95 µM, the GI50 [51] was 1.92 µM and the TGI [51] was 4.23 µM. The GI50 [52] was 1.8 µM, the TGI [52] was 3.49 µM and the GI50 [53] was 1.77 µM. It also gave a TGI [53] of 3.97 µM, a GI50 [54] of 1.91 µM and a TGI [54] of 7.09 µM. For the same molecule, the GI50 [55] was 1.7 µM, the TGI [55] was 4.05 µM and the GI50 [56] was 1.93 µM. For the same molecule, the TGI [56] was 4.82 µM, the GI50 [57] was 1.82 µM and the TGI [57] was 3.85 µM.

Source: PubChem BioAssay (NCI)
